From patent US20060228384A1, “Control of biofilm with a biofilm inhibitor” (Sequoia Sciences, Inc., priority 2005, published 2006)

Experiments:
biofilm = assay: Biofilm Inhibition Assay (compound library screening and analogs, methods as in Example 1); type: cell-based; conditions: tested as mentioned in Example 1
Source text: As is evident from the Biofilm Inhibiton Assay results presented in Table 1, one compound from Hit 39, SF382 confirmed biofilm inhibition after purification. […] Thus, the percentage of bacteria attached (within the biofilm) versus free-floating compared to untreated (negative) control has shifted toward free-floating upon addition of the treatment. Compound SF382 was particularly active, reducing the formation of biofilm by 50% compared to negative control. Compound SF382 is represented by structure (I).
(§1) In vitro biofilm inhibition was evaluated using a high-throughput method. This method uses standard pre-sterilized 96-well polystyrene microtiter plates. Each well was filled to a final volume of 200 μl. Initially, a concentrated compound solution is transferred into each well, except those which are used as controls, to achieve an appropriate testing concentration, typically 10 μg/ml. 150 μl of sterile media was then added, followed by 50 μl of bacterial inoculum. The plates were then placed on a shaker for 24 hours.
After the allotted growth time, the samples were removed from the shaker, rinsed and stained. The rinse involves first draining the wells, filling each well with PBS, and draining each well again. The rinse removes suspended cells from the system. […] The plate was then immediately analyzed with a microtiter plate reader. The samples and controls were analyzed in triplicate. […]

[1] = tested on: Pseudomonas aeruginosa PA01; assay: In vitro biofilm inhibition, 96-well plate, crystal violet (Example 1); type: cell-based; conditions: 10 μg/mL, 24 hours
Procedure: as §1
(§2) After the allotted growth time, the samples were removed from the shaker, rinsed and stained. The rinse involves first draining the wells, filling each well with PBS, and draining each well again. The rinse removes suspended cells from the system. The biofilm was then stained with crystal violet for 20 minutes. The wells were each rinsed 4 times to remove any excess stain from the system and then eluted with 250 μl of ethanol. The elution step improves the detection of the stain during the analyses. The plate was then immediately analyzed with a microtiter plate reader. The samples and controls were analyzed in triplicate. Each plate contains negative and positive controls. The test samples were compared to the positive and negative controls to detect any reduction in the total amount of biofilm.

[2] = tested on: Staphylococcus epidermidis ATCC 29641; assay: as above; type: cell-based; conditions: ATCC29641, 10 μg/mL, 24 hours
Procedure: as §1, §2

Escherichia coli JM109 = assay: Biofilm formation and growth of wild-type E. coli JM109 (Example 2); type: cell-based; conditions: compared to controls
Procedure: (§3) Biofilm inhibition experiments were conducted using an assay adapted from the reported protocol described in Pratt and Kolter, 1998, Molecular Microbiology, 30: 285-293; Li et al., 2001, J. Bacteriol., 183: 897-908. E. coli JM109 was grown in LB with or without 0.2% glucose in 96 well plates at 37° C. for two days without shaking. To quantify the biofilm mass, the suspension culture was poured out and the biofilm was washed three times with water. The biofilm was stained with 0.1% crystal violet for 20 minutes. The plates were then washed three times with water. OD reading at 540 nm was measured to quantify the biofilm mass at the bottom of the wells. Then 95% ethanol was added to dissolve the dye at the bottom and on the wall and the OD reading at 540 nm was measured to quantify the total biofilm mass. To study the overall effect of palmitoleic acid (3.6 mg/mL in 100% ethanol as stock solution), it was added with the inoculation and a time course of biofilm mass was measured. To study if the compound can cause biofilm removal, it was added one day after inoculation. Appropriate amounts of 100% ethanol were added to each sample to eliminate the effect of solvent. Four plates were prepared for each study to give a time course. Each condition had 3-4 replicates on each plate.

[3] = tested on: methicillin-resistant Staphylococcus aureus 78-13607A; assay: Antibacterial effect, NCCLS procedures (Example 3); type: cell-based; conditions: studied at 32 μg/mL, read-out: MIC (minimal inhibitory concentration)
Procedure: (§4) Using the appropriate NCCLS procedures, the antibacterial effect of palmitoleic acid on two strains of methicillin-resistant Staphylococcus aureus (ATCC 33591 and 78-13607A) was studied at 32 μg/mL.

[4] = tested on: methicillin-resistant Staphylococcus aureus ATCC 33591; assay: Antibacterial effect, NCCLS procedures (Example 3); type: cell-based; conditions: ATCC33591, studied at 32 μg/mL, read-out: MIC (minimal inhibitory concentration)
Procedure: as §4

Escherichia coli UTI89 = assay: Biofilm inhibition dose response, clinical strain (Example 4); type: cell-based; conditions: LB media, compared to controls
Procedure: as §3
Dose response experiments were conducted on palmitoleic acid as described in Example 2 at 4, 8, 16, and 32 ug/mL with E. coli UT189 in LB media.

[5] = tested on: Pseudomonas aeruginosa strain PAO1; assay: Rotating disk reactor biofilm with tobramycin, CFU enumeration (Example 5); type: cell-based; conditions: palmitoleic acid approx. 100 μg/ml 24 h then tobramycin 100 μg/ml 2 h; combined treatment compared to tobramycin alone
Procedure: Biofilm formation of P. aeruginosa was evaluated using a standardized biofilm method with a rotating disk reactor (RDR). This method provides a model resembling the formation of biofilms in cystic fibrosis patients. The rotating disk reactor consists of a one-liter glass beaker fitted with a drain spout. The bottom of the vessel contains a magnetically driven rotor with six 1.27 cm diameter coupons constructed from polystyrene. The rotor consists of a star-head magnetic stir bar upon which a disk was affixed to hold the coupons. The vessel with the stir bar was placed on a stir plate and rotated to provide fluid shear. A nutrient solution (AB Trace Medium with 0.3 mM glucose, see Table 3 below for composition) was added through a stopper in the top of the reactor at a flow rate of 5 ml/min. The reactor volume was approximately 180 ml and varied slightly between reactors depending on the placement of the drain spout and the rotational speed of the rotor. At a volume of 180 ml, the residence time of the reactors was 36 minutes. The reactors were operated at room temperature (c.a. 26° C.).
For each test, two RDRs were operated in parallel with one receiving palmitoleic acid and the other serving as an untreated control. […] The plates were incubated for 24 hours at 37° C. before colony forming units (CFU) were determined.

[6] = tested on: human hepatocellular carcinoma cells (HepG2); assay: In vitro cytotoxicity assessment (Example 7); type: cell-based; conditions: 30 or 60 μM, fluorometric detection of mitochondrial activity
Procedure: Palmitoleic acid was tested to assess its cytotoxicity in human hepatocellular carcinoma cells (HepG2). Palmitoleic acid was tested at two concentrations of 30 and 60 μM in HepG2 cells in triplicate. Gross cytotoxicity was assayed by fluorometric detection in response to mitochondrial activity according to Nociari M M, et al. (1998) J. Immunol. Met. 213:157. Chlorpromazine was used as a positive control.

[7] = tested on: Streptococcus mutans 25175; assay: Biofilm growth inhibition in polycarbonate tubes (Example 8); type: cell-based; conditions: 80 μg/mL
[8] = tested on: Streptococcus sobrinus 6715; assay: as above; type: cell-based; conditions: 80 μg/mL
[9] = In vivo PK study in rats (Example 9); design: species or system rat; conditions: plasma
Procedure: Two groups of animals were prepared to evaluate palmitoleic acid. Palmitoleic acid was evaluated for two dose routes consisting of 50 mg/kg (IV) and 100 mg/kg (Oral). Three animals were assigned to the IV route group and two animals were assigned to the oral route group. Prior to dosing, a baseline blood sample was taken from each animal. At time zero, a single bolus dose of palmitoleic acid in 10% Cremophor (BASF) was given to each animal. Blood samples were taken from each animal at 1, 4, 12 and 24 hours post dosing. All blood samples were processed to plasma.
The plasma samples were extracted by adding internal standard at a concentration of 10 μg/mL to achieve a final concentration of 2 μg/mL when reconstituted. A solution of 80:20 methanol:chloroform was used to cause protein precipitation. The samples were then vortexed and centrifuged. The supernatant was decanted and the solvent was evaporated off. Samples were then analyzed and quantified by LC/MS.

Gram-positive bacteria = conditions: cited from earlier work
[10] = tested on: Gram-negative bacteria such as Pseudomonas aeruginosa, and Escherichia coli; conditions: also P. acnes and several methicillin-resistant S. aureus strains; cited from earlier work
P. acnes = conditions: 125 ug/ml; cited from earlier work
[11] = tested on: clinical strains of Staphylococcus aureus; conditions: 100 ug/ml; cited from earlier work
Propionibacterium acnes = conditions: each compound alone; cited from earlier work

With `CCCCCCCCCCCCCCCC(=O)O` [palmitic acid] the “inhibition of the formation of biofilms” value (biofilm) was “does not inhibit the formation of biofilms”.

For `CCCCCC/C=C\CCCCCCCC(=O)O` [palmitoleic acid], the inhibition at 10 µg/mL [1] was 55%, the inhibition at 10 µg/mL [2] was 80% and the “inhibition of total biofilm formation (reduction)” value (Escherichia coli JM109; approximately 20 μM, added with inoculation) was “about 60%”. For the same compound, the “inhibitory effect on growth” value (Escherichia coli JM109) was “no inhibitory effect”, the MIC [3] was over 32 µg/mL and the MIC [4] was over 32 µg/mL. The inhibition at 4 µg/mL (Escherichia coli UTI89; 4 μg/mL) was about 10%, the inhibition at 8 µg/mL (Escherichia coli UTI89; 8 μg/mL) was about 55% and the inhibition at 16 µg/mL (Escherichia coli UTI89; 16 μg/mL) was about 70%. For the same compound, the inhibition at 32 µg/mL (Escherichia coli UTI89; 32 μg/mL) was about 80%, the “reduction of CFUs” value [5] was 60% and the cytotoxicity [6] was “not observed”. For the same compound, the inhibition at 80 µg/mL [7] was over 75%, the inhibition at 80 µg/mL [8] was over 75% and the AUC ([9]; IV 50 mg/kg single bolus in 10% Cremophor) was 123 µg/mL/h. For the same compound, the AUC ([9]; oral 100 mg/kg single dose in 10% Cremophor) was 219.71 µg/mL/h, the “typical minimal inhibitory concentration (MIC) value” (Gram-positive bacteria; growth of Gram-positive bacteria) was 10 to 20 µg/mL and the “synergistic effect with mupirocin” value (Gram-positive bacteria; palmitoleic acid and mupirocin against Gram-positive bacteria) was “no synergistic effect was observed”. The growth inhibition [10] was “could not inhibit the growth”, the growth inhibition (P. acnes) was “failed to inhibit the growth” and the inhibitory effect [11] was “no inhibitory effect”. The “growth inhibition, compound alone” value (Propionibacterium acnes) was “neither compound alone could effectively inhibit the growth”.

For `Cc1ncc([N+](=O)[O-])n1CCO` [metranidazole, reference compound], the “growth inhibition, compound alone” value (Propionibacterium acnes) is listed as “neither compound alone could effectively inhibit the growth”.
